The subject of assay [1] is C. parapsilosis ATCC 22019. The experiment in a line: Anti-Fungal Activity Assay (broth microtiter MIC), C. parapsilosis. It counts as cell-based, Candida parapsilosis. As to conditions: Lodderomyces parapsilosis, ATCC22019, 48 h, 3 replicates; MIC recorded at 48 h; read-out: MIC C. parapsilosis ATCC 22019. Here is the method:
(§1) Compounds of the present invention were evaluated in an Anti-Fungal Activity Assay. An exemplary procedure for the assay, which measures the susceptibility of various Candida species to anti-fungal compounds, follows. Compounds to be tested (including fluconazole and amphotericin B) were dissolved in DMSO to obtain a solution having a concentration of 1 mg/mL. […] All species were grown from frozen stock by directly plating on to freshly prepared Sabouraud Dextrose agar (BD, Difco) and incubated overnight in ambient air at 35° C. for 24 h. A direct suspension was prepared in RPMI 1640+MOPS (Lonza, Biowhittaker) by taking individual colonies from the overnight cultures using sterile swabs soaked in sterile saline. The concentration of the suspension was determined using pre-determined standard curves. […] Broth microtiter MIC challenge plates were prepared following CLSI guidelines (M27-A3, Vol. 28 No. 14). The original CLSI guidelines focused on reading Candida MICs after 48 h of incubation. As reading after only 24 h offers a clear advantage of patient care, QC limits are being established for all drugs at 24 h. That being said there are no known interpretive breakpoints for amphotericin B at 24 h and the current fluconazole interpretive breakpoints are based on a 48 h reading. The MIC breakpoints for the test compounds were recorded at 48 h, and for the soraphen the 24 h time-point was added. All MIC determinations were achieved by visually comparing the growth found in the antibiotic challenged wells to that of the growth control.

The next assay relates to C. krusei ATCC 6258. The experiment in a line: Anti-Fungal Activity Assay (broth microtiter MIC), C. krusei. It counts as cell-based, Candida krusei. As to conditions: 3 replicates, MIC recorded at 48 h; for MIC: Pichia kudriavzevii, ATCC6258, 48 h, read-out: MIC C. krusei ATCC 6258. As to the method: as §1
A further assay concerns C. albicans ATCC 90028. In words: Anti-Fungal Activity Assay (broth microtiter MIC), C. albicans. It counts as cell-based, Candida albicans. As to conditions: 3 replicates, MIC recorded at 48 h; for MIC: Candida albicans, ATCC90028, 48 h, read-out: MIC C. albicans ATCC 90028. As to the method: as §1
For a further assay, the target named is Human ACC2 (Homo sapiens, UniProt O00763). The experiment in a line: In vitro ACC2 inhibition assay (ADP-Glo), human ACC2. It counts as biochemical. As to conditions: 5 nM ACC2, 20 μM ATP, 20 μM acetyl-CoA. On the technique in general: In ADP-Glo the light output rises with the ADP produced.

Converted amounts (≈) assume the structure as drawn. Bounds are passed on as bounds.

Human ACC2, sequence (O00763 whole entry): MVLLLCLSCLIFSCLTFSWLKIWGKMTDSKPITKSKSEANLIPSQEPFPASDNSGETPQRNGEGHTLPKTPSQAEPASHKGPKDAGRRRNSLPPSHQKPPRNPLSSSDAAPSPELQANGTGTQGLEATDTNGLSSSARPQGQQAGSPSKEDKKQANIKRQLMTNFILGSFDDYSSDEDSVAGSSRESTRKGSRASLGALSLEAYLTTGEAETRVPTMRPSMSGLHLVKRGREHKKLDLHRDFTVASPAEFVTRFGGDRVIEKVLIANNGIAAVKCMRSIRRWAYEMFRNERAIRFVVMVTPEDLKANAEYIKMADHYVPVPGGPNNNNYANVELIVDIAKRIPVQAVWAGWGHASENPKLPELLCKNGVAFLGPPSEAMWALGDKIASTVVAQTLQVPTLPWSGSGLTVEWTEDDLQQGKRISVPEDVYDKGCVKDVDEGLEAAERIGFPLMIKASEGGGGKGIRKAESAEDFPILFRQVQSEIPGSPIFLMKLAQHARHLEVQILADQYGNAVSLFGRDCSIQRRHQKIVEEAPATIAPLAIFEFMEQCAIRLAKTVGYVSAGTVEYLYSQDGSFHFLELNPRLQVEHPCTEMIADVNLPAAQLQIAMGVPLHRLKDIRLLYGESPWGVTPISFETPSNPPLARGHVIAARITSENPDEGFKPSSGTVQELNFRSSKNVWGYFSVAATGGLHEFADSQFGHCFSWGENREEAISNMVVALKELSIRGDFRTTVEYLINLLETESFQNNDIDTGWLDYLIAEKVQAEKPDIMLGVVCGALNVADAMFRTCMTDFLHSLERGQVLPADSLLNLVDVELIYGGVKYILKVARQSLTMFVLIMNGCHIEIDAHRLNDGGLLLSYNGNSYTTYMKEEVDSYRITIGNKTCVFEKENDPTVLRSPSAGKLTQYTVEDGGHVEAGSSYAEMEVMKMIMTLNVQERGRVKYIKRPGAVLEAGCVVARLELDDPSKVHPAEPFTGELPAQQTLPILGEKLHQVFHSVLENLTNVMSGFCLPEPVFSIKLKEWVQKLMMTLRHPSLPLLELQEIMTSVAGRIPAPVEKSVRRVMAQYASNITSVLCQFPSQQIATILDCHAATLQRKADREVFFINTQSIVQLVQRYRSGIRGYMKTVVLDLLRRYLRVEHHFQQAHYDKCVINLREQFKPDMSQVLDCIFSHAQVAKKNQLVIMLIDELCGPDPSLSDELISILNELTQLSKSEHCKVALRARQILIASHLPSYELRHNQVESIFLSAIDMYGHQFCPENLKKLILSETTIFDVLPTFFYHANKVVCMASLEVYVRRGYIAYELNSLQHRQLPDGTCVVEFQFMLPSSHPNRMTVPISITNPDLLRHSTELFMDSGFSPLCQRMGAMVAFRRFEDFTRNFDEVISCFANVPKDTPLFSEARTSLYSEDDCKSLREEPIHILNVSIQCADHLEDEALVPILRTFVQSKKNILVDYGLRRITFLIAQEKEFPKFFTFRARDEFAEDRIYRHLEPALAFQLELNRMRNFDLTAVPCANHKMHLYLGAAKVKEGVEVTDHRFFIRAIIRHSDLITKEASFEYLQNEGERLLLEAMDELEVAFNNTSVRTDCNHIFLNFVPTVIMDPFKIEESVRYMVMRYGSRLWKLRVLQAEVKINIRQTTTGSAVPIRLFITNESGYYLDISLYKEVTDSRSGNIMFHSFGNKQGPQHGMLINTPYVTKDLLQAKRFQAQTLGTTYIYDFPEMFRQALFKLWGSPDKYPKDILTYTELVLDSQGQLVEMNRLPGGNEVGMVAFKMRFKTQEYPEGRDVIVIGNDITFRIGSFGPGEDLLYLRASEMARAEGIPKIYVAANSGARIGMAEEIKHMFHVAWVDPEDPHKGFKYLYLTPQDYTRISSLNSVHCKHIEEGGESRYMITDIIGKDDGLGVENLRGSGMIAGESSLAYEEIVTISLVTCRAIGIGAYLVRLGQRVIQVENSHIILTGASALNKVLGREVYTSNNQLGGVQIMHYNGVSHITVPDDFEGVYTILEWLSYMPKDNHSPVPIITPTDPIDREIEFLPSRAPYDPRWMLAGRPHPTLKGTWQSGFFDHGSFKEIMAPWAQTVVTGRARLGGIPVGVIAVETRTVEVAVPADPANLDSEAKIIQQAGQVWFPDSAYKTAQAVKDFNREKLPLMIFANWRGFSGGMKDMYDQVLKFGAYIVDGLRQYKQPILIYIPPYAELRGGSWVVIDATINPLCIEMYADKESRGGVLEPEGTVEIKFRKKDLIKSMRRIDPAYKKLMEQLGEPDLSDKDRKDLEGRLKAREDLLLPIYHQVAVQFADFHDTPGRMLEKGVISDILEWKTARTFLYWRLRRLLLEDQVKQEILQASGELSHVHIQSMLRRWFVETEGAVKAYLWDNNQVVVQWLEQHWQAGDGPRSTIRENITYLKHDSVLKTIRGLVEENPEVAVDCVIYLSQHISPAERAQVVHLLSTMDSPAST

In the case of `COc1ccc(F)cc1[C@H](Cn1c(=O)n(C2CCN(C(C)C)C2=O)c(=O)c2c(C)c(-n3nccn3)sc21)OC1CCOCC1` (stereo in doubt) [Compound I-138, 1-((R)-2-(5-fluoro-2-methoxyphenyl)-2-((tetrahydro-2H-pyran-4-yl)oxy)ethyl)-3-((S)-1-isopropyl-2-oxopyrrolidin-3-yl)-5-methyl-6-(2H-1,2,3-triazol-2-yl)thieno[2,3-d]pyrimidine-2,4(1H,3H)-dione], the MIC (usually the smallest concentration in the dilution series that meets the test's criterion for growth inhibition) in assay [1] lay in the range of 2.1 to 4 mg/L (≈ 3.35 to 6.38 µM). Further, the “MIC C. krusei ATCC 6258” value with C. krusei ATCC 6258 is “A (provided an MIC of 0.25-1.0 μg/mL)”. Besides, the “MIC C. albicans ATCC 90028” value with C. albicans ATCC 90028 is listed as “A (provided an MIC of 0.25-1.0 μg/mL)”. For the same compound, on Human ACC2, the IC50 (in general, the concentration at which inhibition is half-maximal) is 0.002 to 0.01 µM.

Consider `CCN1CCC(n2c(=O)c3c(C)c(-n4nccn4)sc3n(C[C@H](OCCOC)c3cc(F)ccc3OC)c2=O)C1=O` (stereo partly drawn) [Compound I-3, 3-(1-ethyl-2-oxopyrrolidin-3-yl)-1-((R)-2-(5-fluoro-2-methoxyphenyl)-2-(2-methoxyethoxy)ethyl)-5-methyl-6-(2H-1,2,3-triazol-2-yl)thieno[2,3-d]pyrimidine-2,4(1H,3H)-dione], for which the MIC (in assay [1]; in the assay with C. krusei ATCC 6258; in the assay on C. albicans ATCC 90028) was 2.1 to 4 mg/L (≈ 3.58 to 6.82 µM) in each case. Also, the half-maximal inhibitory concentration (IC50) against Human ACC2 is 0.01 to 0.1 µM.

In the case of `COc1ccc(F)cc1[C@H](Cn1c(=O)n(C2CCN(C)C2=O)c(=O)c2c(C)c(-n3nccn3)sc21)OCCO` (stereo partly drawn) [Compound I-6, 1-((R)-2-(5-fluoro-2-methoxyphenyl)-2-(2-hydroxy-ethoxy)ethyl)-5-methyl-3-(-methyl-2-oxopyrrolidin-3-yl)-6-(2H-1,2,3-triazol-2-yl)thieno[2,3-d]pyrimidine-2,4(1H,3H)-dione], the MIC (in assay [1]; in the assay on C. krusei ATCC 6258; in the assay with C. albicans ATCC 90028) was 2.1 to 4 mg/L (≈ 3.76 to 7.16 µM) throughout. In addition, the IC50 against Human ACC2 was 0.01 to 0.1 µM.

As for `CCN1CCC(n2c(=O)c3c(C)c(-n4nccn4)sc3n(C[C@H](OCCO)c3cc(F)ccc3OC)c2=O)C1=O` (stereo partly drawn) [Compound I-7, 3-(1-ethyl-2-oxopyrrolidin-3-yl)-1-((R)-2-(5-fluoro-2-methoxyphenyl)-2-(2-hydroxyethoxy)ethyl)-5-methyl-6-(2H-1,2,3-triazol-2-yl)thieno[2,3-d]pyrimidine-2,4(1H,3H)-dione], the results for the MIC (in assay [1]; in the assay with C. krusei ATCC 6258; in the assay on C. albicans ATCC 90028) were 2.1 to 4 mg/L (≈ 3.67 to 6.99 µM), 1.1 to 2 mg/L (≈ 1.92 to 3.49 µM) and 2.1 to 4 mg/L (≈ 3.67 to 6.99 µM), respectively. This compound also came in with an IC50 against Human ACC2 of 0.01 to 0.1 µM.

For `COc1ccc(F)cc1[C@H](Cn1c(=O)n(C2CCN(C(C)C)C2=O)c(=O)c2c(C)c(-n3nccn3)sc21)OCCO` (stereo partly drawn) [Compound I-8, 1-((R)-2-(5-fluoro-2-methoxyphenyl)-2-(2-hydroxyethoxy)ethyl)-3-(1-isopropyl-2-oxopyrrolidin-3-yl)-5-methyl-6-(2H-1,2,3-triazol-2-yl)thieno[2,3-d]pyrimidine-2,4(1H,3H)-dione], the IC50 at Human ACC2 is 0.002 to 0.01 µM.

Consider `COc1ccc(F)cc1[C@H](Cn1c(=O)n(C2CCNC2=O)c(=O)c2c(C)c(-n3nccn3)sc21)OC1CCOCC1` (stereo partly drawn) [Compound I-9, 1-((R)-2-(5-fluoro-2-methoxyphenyl)-2-((tetrahydro-2H-pyran-4-yl)oxy)ethyl)-5-methyl-3-(2-oxopyrrolidin-3-yl)-6-(22H-1,2,3-triazol-2-yl)thieno[2,3-d]pyrimidine-2,4(1H,3H)-dione], for which the IC50 on Human ACC2 lay in the range of 0.002 to 0.01 µM.

Take `COc1ccc(F)cc1[C@H](Cn1c(=O)n(C2CCCNC2=O)c(=O)c2c(C)c(-n3nccn3)sc21)OCCO` (stereo partly drawn) [Compound I-17, 1-((R)-2-(5-fluoro-2-methoxyphenyl)-2-(2-hydroxy-ethoxy)ethyl)-5-methyl-3-(2-oxopiperidin-3-yl)-6-(2H-1,2,3-triazol-2-yl)thieno[2,3-d]pyrimidine-2,4(1H,3H)-dione]: the MIC (in assay [1]; in the assay on C. krusei ATCC 6258; in the assay with C. albicans ATCC 90028) was 2.1 to 4 mg/L (≈ 3.76 to 7.16 µM) throughout. Also, the IC50 at Human ACC2 fell in the range of 0.002 to 0.01 µM.

In the case of `CCN1CCCC(n2c(=O)c3c(C)c(-n4nccn4)sc3n(C[C@H](OCCO)c3cc(F)ccc3OC)c2=O)C1=O` (stereo partly drawn) [Compound I-19, 3-(1-ethyl-2-oxopiperidin-3-yl)-1-((R)-2-(5-fluoro-2-methoxyphenyl)-2-(2-hydroxyethoxy)ethyl)-5-methyl-6-(2H-1,2,3-triazol-2-yl)thieno[2,3-d]pyrimidine-2,4(1H,3H)-dione], the MIC (in assay [1]; in the assay with C. krusei ATCC 6258; in the assay on C. albicans ATCC 90028) was 2.1 to 4 mg/L (≈ 3.58 to 6.82 µM) each time. The IC50 on Human ACC2 fell in the range of 0.01 to 0.1 µM.

With `COc1ccc(F)cc1[C@H](Cn1c(=O)n(C2CCCN(C(C)C)C2=O)c(=O)c2c(C)c(-n3nccn3)sc21)OCCO` (stereo partly drawn) [Compound I-20, 1-((R)-2-(5-fluoro-2-methoxyphenyl)-2-(2-hydroxy-ethoxy)ethyl)-3-(1-isopropyl-2-oxopiperidin-3-yl)-5-methyl-6-(2H-1,2,3-triazol-2-yl)thieno[2,3-d]pyrimidine-2,4(1H,3H)-dione], the MIC (in assay [1]; in the assay with C. krusei ATCC 6258; in the assay on C. albicans ATCC 90028) was 2.1 to 4 mg/L (≈ 3.5 to 6.66 µM) each time. The IC50 against Human ACC2 fell in the range of 0.01 to 0.1 µM.

As to `COc1ccc(F)cc1[C@H](Cn1c(=O)n(C2CCCNC2=O)c(=O)c2c(C)c(-n3nccn3)sc21)OC1CCOCC1` (stereo partly drawn) [Compound I-21, 1-((R)-2-(5-fluoro-2-methoxyphenyl)-2-((tetrahydro-2H-pyran-4-yl)oxy)ethyl)-5-methyl-3-(2-oxopiperidin-3-yl)-6-(2H-1,2,3-triazol-2-yl)thieno[2,3-d]pyrimidine-2,4(1H,3H)-dione], the MIC is 1.1 to 2 mg/L (≈ 1.84 to 3.34 µM) in assay [1], 0.25 to 1 mg/L (≈ 0.418 to 1.67 µM) in the assay on C. krusei ATCC 6258 and 0.25 to 1 mg/L (≈ 0.418 to 1.67 µM) with C. albicans ATCC 90028. At Human ACC2, this compound showed an IC50 of 0.002 to 0.01 µM.

For `COc1ccc(F)cc1[C@H](Cn1c(=O)n(C2CCCN(C(C)C)C2=O)c(=O)c2c(C)c(-n3nccn3)sc21)OC1CCOCC1` (some centres unmarked) [Compound I-24], the MIC (in assay [1]; in the assay on C. krusei ATCC 6258; with C. albicans ATCC 90028) was 0.25 to 1 mg/L (≈ 0.39 to 1.56 µM) each time. Moreover, the IC50 against Human ACC2 was in the range of 0.01 to 0.1 µM.

`COc1ccc(F)cc1[C@H](Cn1c(=O)n([C@H]2CCCN(C(C)C)C2=O)c(=O)c2c(C)c(-n3nccn3)sc21)OC1CCOCC1` [Compound I-76, 1-((R)-2-(5-fluoro-2-methoxyphenyl)-2-((tetrahydro-2H-pyran-4-yl)oxy)ethyl)-3-((S)-1-isopropyl-2-oxopiperidin-3-yl)-5-methyl-6-(2H-1,2,3-triazol-2-yl)thieno[2,3-d]pyrimidine-2,4(1H,3H)-dione]: the IC50 against Human ACC2 was 0.01 to 0.1 µM.

`COc1ccc(F)cc1[C@H](Cn1c(=O)n([C@@H]2CCCN(C(C)C)C2=O)c(=O)c2c(C)c(-n3nccn3)sc21)OC1CCOCC1` [Compound I-77, 1-((R)-2-(5-fluoro-2-methoxyphenyl)-2-((tetrahydro-2H-pyran-4-yl)oxy)ethyl)-3-((R)-1-isopropyl-2-oxopiperidin-3-yl)-5-methyl-6-(2H-1,2,3-triazol-2-yl)thieno[2,3-d]pyrimidine-2,4(1H,3H)-dione] gave a 50% inhibitory concentration (IC50) against Human ACC2 of 0.002 to 0.01 µM.

As to `COc1ccc(F)cc1[C@H](Cn1c(=O)n([C@]2(C)CCNC2=O)c(=O)c2c(C)c(-n3nccn3)sc21)OCCO` [Compound I-144, 1-((R)-2-(5-fluoro-2-methoxyphenyl)-2-(2-hydroxyethoxy)ethyl)-5-methyl-3-((R)-3-methyl-2-oxopyrrolidin-3-yl)-6-(2H-1,2,3-triazol-2-yl)thieno[2,3-d]pyrimidine-2,4(1H,3H)-dione], the IC50 against Human ACC2 was over 1 µM.

`COc1ccc(F)cc1[C@H](Cn1c(=O)n([C@@]2(C)CCNC2=O)c(=O)c2c(C)c(-n3nccn3)sc21)OCCO` [Compound I-145, 1-((R)-2-(5-fluoro-2-methoxyphenyl)-2-(2-hydroxy-ethoxy)ethyl)-5-methyl-3-((S)-3-methyl-2-oxopyrrolidin-3-yl)-6-(2H-1,2,3-triazol-2-yl)thieno[2,3-d]pyrimidine-2,4(1H,3H)-dione] registered an IC50 against Human ACC2 of over 1 µM.

Take `COc1ccc(F)cc1[C@H](Cn1c(=O)n([C@]2(C)CCN(C)C2=O)c(=O)c2c(C)c(-n3nccn3)sc21)OCCO` [Compound I-147, 3-((R)-1,3-dimethyl-2-oxopyrrolidin-3-yl)-1-((R)-2-(5-fluoro-2-methoxyphenyl)-2-(2-hydroxyethoxy)ethyl)-5-methyl-6-(2H-1,2,3-triazol-2-yl)thieno[2,3-d]pyrimidine-2,4(1H,3H)-dione]: on Human ACC2, the concentration for half-maximal inhibition (IC50) was over 1 µM.

In the case of `COc1ccc(F)cc1[C@H](Cn1c(=O)n([C@@]2(C)CCN(C)C2=O)c(=O)c2c(C)c(-n3nccn3)sc21)OCCO` [Compound I-149, 3-((S)-1,3-dimethyl-2-oxopyrrolidin-3-yl)-1-((R)-2-(5-fluoro-2-methoxyphenyl)-2-(2-hydroxyethoxy)ethyl)-5-methyl-6-(2H-1,2,3-triazol-2-yl)thieno[2,3-d]pyrimidine-2,4(1H,3H)-dione], the IC50 on Human ACC2 is over 1 µM.
